Measured values from patent publication US12636317B2, “Manipulation and use of antigen-specific regulatory T cells” (The Board of Trustees of the Leland Stanford Junior …, priority 2019, dated 2026).

Legend:
EAE6-CD8 TCR = assay type: binding, mouse; conditions: Jurkat αβ−/− cells, H2-Db tetramer
SP specific CD8+ T cells = assay: Tetramer enrichment of SP-specific CD8+ T cells from spleen and LN after immunization; assay type: in vivo, C57BL/6J mice; conditions: 10D PI
EAE7-CD8 TCR = assay type: binding, mouse; conditions: Jurkat αβ−/− cells, H2-Db tetramer
[1] = system: experimental autoimmune encephalomyelitis (EAE); assay: Induction and evaluation of EAE (clinical scores); assay type: in vivo, C57BL/6J mice
[2] = system: MOG35-55 specific CD4+ T cells; assay: Tetramer enrichment of MOG35-55 I-Ab specific CD4+ T cells from spleen and LN after immunization; assay type: in vivo, C57BL/6J mice; conditions: D10 after immunization
[3] = system: MOG35-55 specific CD4+ T cells; assay: In vitro proliferation/suppression assay (CTV dilution); assay type: cell-based, mouse; conditions: CD4+ T cells from MOG immunized mice stimulated with MOG35-55
Experimental: In vitro proliferation/suppression assay. Spleen and LN cells were harvested from WT or immunized mice. Single cell suspensions were prepared, and RBCs were lysed using Ack lysis buffer (ThermoFisher scientific A1049201). […] Post CD4+ T cell enrichment, cells were counted and labelled with CellTrace™ Violet Dye (ThermoFisher scientific C34557) according to manufacturer instructions.
In vitro proliferation/suppression assays were set up according to previously published protocol. Briefly, labelled CD4+ T cells were co-cultured either with CD8+ T cells (1:1 ratio, 0.25×10^6 cells/well) or without CD8+ T cells in the presence of pan DC's (0.75×10^6 cells/well). In some of the suppression experiments cells were pre-included with 10 μg/ml of anti-Qa-1b neutralizing antibody (6A8.6F10.1A16, BD Biosciences). Cells were cultured in a total volume of 200 μl in a 96-well round bottom plate. The CD4+ T cells were stimulated with either MOG35-55 or not. On day 7, the cells were washed and stained with surface antibodies and analyzed on LSR II (Becton Dickinson).

6218 TCR = assay type: binding, mouse; conditions: Jurkat αβ−/− cells, H2-Db tetramer
[4] = system: ovalbumin specific TCR (OT-1) expressed in 58 αβ−/− cells; assay: T cell stimulation assay (CD69) with peptide- or protein-pulsed BMDCs; assay type: cell-based, mouse; conditions: co-culture with loaded BMDCs
Experimental: T cell stimulation assays. T cell stimulation assays were performed as previously described. All the T cell peptide stimulation experiments were done in 96 well round bottom plates with a 200 μl total volume. T2, K562 cells or BMDCs were pulsed with 10-100 μg of the peptides for 45 minutes, washed once and plated (10,000 cells/well). Cell lines expressing TCRs (100,000 cells/well) were co-cultured with APCs for 18 hr. At the end of stimulation, cells were harvested, washed, and stained with TCRβ, human CD3, and CD69 and analyzed on LSR II (Becton Dickinson) for activation.

[5] = target: T1, yeast H2-Db library peptide enriched by the EAE7-CD8 TCR peptide on H2-Db (mouse); assay: binding, other
T1 peptide: RRILNLGGM

[6] = target: T2, yeast H2-Db library peptide enriched by the EAE7-CD8 TCR peptide on H2-Db (mouse); assay: binding, other
T2 peptide: TCAYNPRGM

[7] = target: T3, yeast H2-Db library peptide enriched by the EAE7-CD8 TCR peptide on H2-Db (mouse); assay: binding, other
T3 peptide: QRHENLHRM

[8] = target: T4, yeast H2-Db library peptide enriched by the EAE7-CD8 TCR peptide on H2-Db (mouse); assay: binding, other
T4 peptide: WSLRNLVML

[9] = target: T5, yeast H2-Db library peptide enriched by the EAE7-CD8 TCR peptide on H2-Db (mouse); assay: binding, other
T5 peptide: RDVHNPDVI

[10] = target: T6, yeast H2-Db library peptide enriched by the EAE7-CD8 TCR peptide on H2-Db (mouse); assay: binding, other
T6 peptide: TRLVNDVDL

[11] = target: T7, surrogate peptide (SP) from the yeast H2-Db library; no match in the mouse genome peptide on H2-Db (mouse); assay: multimer staining
T7 peptide: YQPGNWEYI

[12] = target: T8, surrogate peptide (SP) from the yeast H2-Db library; no match in the mouse genome peptide on H2-Db (mouse); assay: multimer staining
T8 peptide: HDRVNWEYI

[13] = target: T9, yeast H2-Db library peptide enriched by the EAE6-CD8 TCR peptide on H2-Db (mouse); assay: binding, other
T9 peptide: FQRGNRLMWL

[14] = target: T10, yeast H2-Db library peptide enriched by the EAE6-CD8 TCR peptide on H2-Db (mouse); assay: binding, other
T10 peptide: GTEFNHWAAI

[15] = target: T11, yeast H2-Db library peptide enriched by the EAE6-CD8 TCR peptide on H2-Db (mouse); assay: binding, other
T11 peptide: ASIANWPLAI

[16] = target: T12, yeast H2-Db library peptide enriched by the EAE6-CD8 TCR peptide on H2-Db (mouse); assay: binding, other
T12 peptide: NHRNNRYFFL

[17] = target: T13, yeast H2-Db library peptide enriched by the EAE6-CD8 TCR peptide on H2-Db (mouse); assay: binding, other
T13 peptide: NHRTNRYFFL

[18] = target: T14, surrogate peptide (SP) from the yeast H2-Db library; no match in the mouse genome peptide on H2-Db (mouse); assay: multimer staining
T14 peptide: SMRPNHFFFL

[19] = target: T15, surrogate peptide (SP) from the yeast H2-Db library; no match in the mouse genome peptide on H2-Db (mouse); assay: multimer staining
T15 peptide: ASRSNRYFWL

[20] = target: T16, myelin oligodendrocyte glycoprotein (MOG); the tetramer is called MOG35-55 I-Ab in the results peptide on … (mouse); assay: multimer staining
T16 peptide: GWYRSPFSRVV

[21] = MOG+SP immunization, spleen and LN
[22] = SP immunization in comparison to WT mice
[23] = Table 7, MOG, SP challenge, MOG challenge (challenge seven days after first immunization), n=10
[24] = Table 7, challenge seven days after first immunization, affected if clinical scores ≥1 for ≥2 consecutive days
[25] = Table 7, challenge seven days after first immunization, mean ± SEM
[26] = Table 6, MOG35-55 with or without SP, mean ± SEM
[27] = Table 6, immunization with MOG35-55, CFA and PTX with or without SP, n=10

## ASRSNRYFWL [surrogate peptide for EAE6-CD8 TCR from H2-Db yeast library]
EAE6-CD8 TCR
  pMHC tetramer staining of EAE6-CD8 TCR cells: robust staining
SP specific CD8+ T cells; [21]
  frequency of CD8+ T cells specific for the peptide: increased
SP specific CD8+ T cells; [22]
  frequency of CD8+ T cells specific for the peptide: no change

## HDRVNWEYI [36th enriched peptide for EAE7-CD8 TCR]
EAE7-CD8 TCR
  pMHC tetramer staining of EAE7-CD8 TCR cells: robust tetramer staining
SP specific CD8+ T cells; [21]
  frequency of CD8+ T cells specific for the peptide: increased
SP specific CD8+ T cells; [22]
  frequency of CD8+ T cells specific for the peptide: higher frequency

## MOG challenge: mice immunized with SP, then challenged with MOG35-55 seven days after immunization (MEVGWYRSPFSRVVHLYRNGK; UniProt Q61885 63-83, looked up, fragment)
[1]; [23]
  Incidence (affected/total): 6/10
[1]; [24]
  Incidence, percentage affected: 60%
[1]; [25]
  CDS, cumulative disease score over 30 days of experiment: 43.3 ± 5.3
  DA, days affected: 8.2 ± 2.5
  DO, day of onset in affected animals: 10 ± 2.8
  PS, peak score: 1.5 ± 0.4
  SI, severity index (cumulative disease score/days affected): 1.29 ± 0.3

## MOG35-55: EAE-inducing myelin oligodendrocyte glycoprotein peptide 35-55 (MEVGWYRSPFSRVVHLYRNGK; UniProt Q61885 63-83, looked up, fragment)
[1]; MOG immunization with or without SP
  incidence of EAE disease (of the mice): 100%
[1]; [26]
  CDS, cumulative disease score: 46.3 ± 5.9
  DA, days affected: 16.3 ± 0.7
  DO, day of onset in affected animals: 13.8 ± 0.2
  PS, peak score: 3.2 ± 0.4
  SI, severity index (cumulative disease score/days affected): 3 ± 0.4
[1]; [27]
  Incidence (affected/total): 10/10
  Incidence, percentage affected: 100%
[1]; [23]
  Incidence (affected/total): 10/10
[1]; [24]
  Incidence, percentage affected: 100%
[1]; [25]
  CDS, cumulative disease score over 30 days of experiment: 55.8 ± 3.9
  DA, days affected: 17 ± 0.3
  DO, day of onset in affected animals: 13.3 ± 0.3
  PS, peak score: 4 ± 0.1
  SI, severity index (cumulative disease score/days affected): 3.14 ± 0.2
[2]
  frequency/number of MOG35-55 I-Ab tetramer+ CD4+ T cells: elicited
[2]; listed as MOG
  frequency/number of MOG35-55 I-Ab tetramer+ CD4+ T cells: increase
SP specific CD8+ T cells; MOG35-55 immunized mice
  SP specific CD8+ T cells detected: very few
[3]
  CD4+ T cell proliferation in the absence of CD8+ T cells: proliferated robustly

## SSLENFRAYV [H2-Db-restricted acid polymerase peptide 224-233, ligand of 6218 TCR]
6218 TCR
  pMHC tetramer staining of 6218 TCR cells: robust staining

## YQPGNWEYI [top enriched surrogate peptide for EAE7-CD8 TCR]
EAE7-CD8 TCR
  pMHC tetramer staining of EAE7-CD8 TCR cells: robust staining
SP specific CD8+ T cells; [22]
  frequency of CD8+ T cells specific for the peptide: no change

## SMRPNHFFFL [surrogate peptide for EAE6-CD8 TCR from H2-Db yeast library]
EAE6-CD8 TCR
  pMHC tetramer staining of EAE6-CD8 TCR cells: robust staining
SP specific CD8+ T cells; [21]
  frequency of CD8+ T cells specific for the peptide: increased
SP specific CD8+ T cells; [22]
  frequency of CD8+ T cells specific for the peptide: higher frequency

## SIINFEKL [ovalbumin derived peptide]
[4]
  activation (CD69) of OT-1 TCR cells: robust activation

B1: EAE7-CD8 (TCR)
alpha mTRAV5D-4 mTRAJ45 CDR3: CAASVNTEGADRLTF
beta mTRBV15 mTRBJ1-1 CDR3: CASTNRGEVFF
[5]
  binding result: recognises
[6]
  binding result: recognises
[7]
  binding result: recognises
[8]
  binding result: recognises
[9]
  binding result: recognises
[10]
  binding result: recognises
[11]
  binding result: recognises
[12]
  binding result: recognises

B2: EAE6-CD8 (TCR)
alpha mTRAV12-1 mTRAJ31 CDR3: CALSDYNRIFF
beta mTRBV19 mTRBJ2-3 CDR3: CASSITPLGGLETLYF
[13]
  binding result: recognises
[14]
  binding result: recognises
[15]
  binding result: recognises
[16]
  binding result: recognises
[17]
  binding result: recognises
[18]
  binding result: recognises
[19]
  binding result: recognises

B3: EAE2-CD4 (TCR)
alpha mTRAV12-1 mTRAJ23 CDR3: CALRNYNQGKLIF
beta mTRBV16 mTRBJ1-4 CDR3: CASSLDQGWDERLFF
[20]
  binding result: recognises

B4: EAE3-CD4 (TCR)
alpha mTRAV14D-1 mTRAJ43 CDR3: CAASGANNNNAPRF
beta mTRBV3 mTRBJ2-5 CDR3: CASSLEGHQDTQYF
[20]
  binding result: recognises

B5: ovalbumin protein: whole OVA protein (protein, UniProt P01012 2-386, looked up)
Ovalbumin: GSIGAASMEFCFDVFKELKVHHANENIFYCPIAIMSALAMVYLGAKDSTRTQINKVVRFDKLPGFGDSIEAQCGTSVNVHSSLRDILNQITKPNDVYSFSLASRLYAEERYPILPEYLQCVKELYRGGLEPINFQTAADQARELINSWVESQTNGIIRNVLQPSSVDSQTAMVLVNAIVFKGLWEKAFKDEDTQAMPFRVTEQESKPVQMMYQIGLFRVASMASEKMKILELPFASGTMSMLVLLPDEVSGLEQLESIINFEKLTEWTSSNVMEERKIKVYLPRMKMEEKYNLTSVLMAMGITDVFSSSANLSGISSAESLKISQAVHAAHAEINEAGREVVGSAEAGVDAASVSEEFRADHPFLFCIKHIATNAVLFFGRCVSP
[4]
  activation (CD69) of OT-1 TCR cells: robustly stimulated
